According to PubChem BioAssay (NCI):
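48-hour exposure; five concentrations; linearly interpolated endpoints. At the GI50, growth is halved. TGI marks complete inhibition of growth.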

Key:
Assay in all cases: NCI anticancer screen, dose series, 48 h
786-0 renal = system: 786-0 renal
A498 renal = system: A498 renal
A549 NSCLC = system: A549 NSCLC
ACHN renal = system: ACHN renal
BT-549 breast = system: BT-549 breast
CAKI-1 renal = system: CAKI-1 renal
CCRF-CEM leukemia = system: CCRF-CEM leukemia
COLO 205 colon = system: COLO 205 colon
DU-145 prostate = system: DU-145 prostate
EKVX NSCLC = system: EKVX NSCLC
HCC-2998 colon = system: HCC-2998 colon
HCT-116 colon = system: HCT-116 colon
HCT-15 colon = system: HCT-15 colon
HL-60(TB) leukemia = system: HL-60(TB) leukemia
HOP-62 NSCLC = system: HOP-62 NSCLC
HOP-92 NSCLC = system: HOP-92 NSCLC
HS 578T breast = system: HS 578T breast
HT29 colon = system: HT29 colon
IGROV1 ovarian = system: IGROV1 ovarian
K-562 leukemia = system: K-562 leukemia
KM12 colon = system: KM12 colon
LOX IMVI melanoma = system: LOX IMVI melanoma
M14 melanoma = system: M14 melanoma
MALME-3M melanoma = system: MALME-3M melanoma
MCF7 breast = system: MCF7 breast
MDA-MB-231 breast = system: MDA-MB-231 breast
MDA-MB-435 = system: MDA-MB-435
MDA-MB-468 breast = system: MDA-MB-468 breast
MOLT-4 leukemia = system: MOLT-4 leukemia
NCI-H226 lung = system: NCI-H226 lung
NCI-H23 lung = system: NCI-H23 lung
NCI-H460 lung = system: NCI-H460 lung
NCI-H522 lung = system: NCI-H522 lung
NCI/ADR-RES ovarian = system: NCI/ADR-RES ovarian
OVCAR-3 ovarian = system: OVCAR-3 ovarian
OVCAR-4 ovarian = system: OVCAR-4 ovarian
OVCAR-5 ovarian = system: OVCAR-5 ovarian
OVCAR-8 ovarian = system: OVCAR-8 ovarian
PC-3 prostate = system: PC-3 prostate
RPMI-8226 leukemia = system: RPMI-8226 leukemia
RXF 393 renal = system: RXF 393 renal
SF-268 CNS = system: SF-268 CNS
SF-539 CNS = system: SF-539 CNS
SK-MEL-2 melanoma = system: SK-MEL-2 melanoma
SK-MEL-28 melanoma = system: SK-MEL-28 melanoma
SK-MEL-5 melanoma = system: SK-MEL-5 melanoma
SK-OV-3 ovarian = system: SK-OV-3 ovarian
SN12C renal = system: SN12C renal
SNB-19 CNS = system: SNB-19 CNS
SNB-75 CNS = system: SNB-75 CNS
SR leukemia = system: SR leukemia
SW-620 colon = system: SW-620 colon
T-47D breast = system: T-47D breast
TK-10 renal = system: TK-10 renal
U251 CNS = system: U251 CNS
UACC-257 melanoma = system: UACC-257 melanoma
UACC-62 melanoma = system: UACC-62 melanoma
UO-31 renal = system: UO-31 renal

C/C(=N/O)c1ccc(NC(=O)CSc2nnc(-c3ccc(-c4nc5ccc(Cl)cc5[nH]4)cc3)o2)cc1
GI50 (786-0 renal): 1.91 µM
TGI (786-0 renal): 3.53 µM
GI50 (A498 renal): 1.94 µM
TGI (A498 renal): 4.58 µM
GI50 (A549 NSCLC): 1.98 µM
TGI (A549 NSCLC): 4.2 µM
GI50 (ACHN renal): 2.7 µM
TGI (ACHN renal): 8.65 µM
GI50 (BT-549 breast): 2.39 µM
TGI (BT-549 breast): 4.35 µM
GI50 (CAKI-1 renal): 1.85 µM
TGI (CAKI-1 renal): 3.73 µM
GI50 (CCRF-CEM leukemia): 2.33 µM
TGI (CCRF-CEM leukemia): 6.75 µM
GI50 (COLO 205 colon): 3.14 µM
TGI (COLO 205 colon): 12.2 µM
GI50 (DU-145 prostate): 2.09 µM
TGI (DU-145 prostate): 4.73 µM
GI50 (EKVX NSCLC): 3.05 µM
TGI (EKVX NSCLC): 13.2 µM
GI50 (HCC-2998 colon): 11.2 µM
TGI (HCC-2998 colon): > 100 µM
GI50 (HCT-116 colon): 2.29 µM
TGI (HCT-116 colon): 5.73 µM
GI50 (HCT-15 colon): 34.5 µM
TGI (HCT-15 colon): > 100 µM
GI50 (HL-60(TB) leukemia): 3.63 µM
TGI (HL-60(TB) leukemia): 17.4 µM
GI50 (HOP-62 NSCLC): 2.01 µM
TGI (HOP-62 NSCLC): 3.95 µM
GI50 (HOP-92 NSCLC): 1.83 µM
TGI (HOP-92 NSCLC): 3.86 µM
GI50 (HS 578T breast): 2.21 µM
TGI (HS 578T breast): 5.19 µM
GI50 (HT29 colon): 2.44 µM
TGI (HT29 colon): 6 µM
GI50 (IGROV1 ovarian): 3.35 µM
TGI (IGROV1 ovarian): 12 µM
GI50 (K-562 leukemia): 2.63 µM
TGI (K-562 leukemia): 10.6 µM
GI50 (KM12 colon): 2.66 µM
TGI (KM12 colon): 8.48 µM
GI50 (LOX IMVI melanoma): 1.57 µM
TGI (LOX IMVI melanoma): 2.92 µM
GI50 (M14 melanoma): 1.76 µM
TGI (M14 melanoma): 3.54 µM
GI50 (MALME-3M melanoma): 1.58 µM
TGI (MALME-3M melanoma): 2.95 µM
GI50 (MCF7 breast): 2.2 µM
TGI (MCF7 breast): 5.93 µM
GI50 (MDA-MB-231 breast): 1.83 µM
TGI (MDA-MB-231 breast): 3.52 µM
GI50 (MDA-MB-435): 1.65 µM
TGI (MDA-MB-435): 3.27 µM
GI50 (MDA-MB-468 breast): 1.81 µM
TGI (MDA-MB-468 breast): 4.09 µM
GI50 (MOLT-4 leukemia): 2.62 µM
TGI (MOLT-4 leukemia): 12.4 µM
GI50 (NCI-H226 lung): 1.74 µM
TGI (NCI-H226 lung): 3.68 µM
GI50 (NCI-H23 lung): 1.9 µM
TGI (NCI-H23 lung): 4.09 µM
GI50 (NCI-H460 lung): 1.61 µM
TGI (NCI-H460 lung): 3.25 µM
GI50 (NCI-H522 lung): 1.57 µM
TGI (NCI-H522 lung): 3.42 µM
GI50 (NCI/ADR-RES ovarian): 84.7 µM
TGI (NCI/ADR-RES ovarian): > 100 µM
GI50 (OVCAR-3 ovarian): 1.74 µM
TGI (OVCAR-3 ovarian): 3.73 µM
GI50 (OVCAR-4 ovarian): 2.04 µM
TGI (OVCAR-4 ovarian): 4.58 µM
GI50 (OVCAR-5 ovarian): 3.33 µM
TGI (OVCAR-5 ovarian): 13.8 µM
GI50 (OVCAR-8 ovarian): 2.94 µM
TGI (OVCAR-8 ovarian): 9.98 µM
GI50 (PC-3 prostate): 2.21 µM
TGI (PC-3 prostate): 5.08 µM
GI50 (RPMI-8226 leukemia): 3.16 µM
TGI (RPMI-8226 leukemia): 15 µM
GI50 (RXF 393 renal): 1.75 µM
TGI (RXF 393 renal): 3.31 µM
GI50 (SF-268 CNS): 1.83 µM
TGI (SF-268 CNS): 3.78 µM
GI50 (SF-539 CNS): 1.71 µM
TGI (SF-539 CNS): 3.08 µM
GI50 (SK-MEL-2 melanoma): 1.78 µM
TGI (SK-MEL-2 melanoma): 3.68 µM
GI50 (SK-MEL-28 melanoma): 1.73 µM
TGI (SK-MEL-28 melanoma): 3.18 µM
GI50 (SK-MEL-5 melanoma): 1.75 µM
TGI (SK-MEL-5 melanoma): 3.33 µM
GI50 (SK-OV-3 ovarian): 2.38 µM
TGI (SK-OV-3 ovarian): 5.33 µM
GI50 (SN12C renal): 1.87 µM
TGI (SN12C renal): 4.06 µM
GI50 (SNB-19 CNS): 1.9 µM
TGI (SNB-19 CNS): 3.62 µM
GI50 (SNB-75 CNS): 1.57 µM
TGI (SNB-75 CNS): 3.41 µM
GI50 (SR leukemia): 2.84 µM
TGI (SR leukemia): 15.5 µM
GI50 (SW-620 colon): 2.84 µM
TGI (SW-620 colon): 8.54 µM
GI50 (T-47D breast): 2.05 µM
TGI (T-47D breast): 4.5 µM
GI50 (TK-10 renal): 5.78 µM
TGI (TK-10 renal): 17.4 µM
GI50 (U251 CNS): 1.83 µM
TGI (U251 CNS): 3.4 µM
GI50 (UACC-257 melanoma): 2.06 µM
TGI (UACC-257 melanoma): 4.5 µM
GI50 (UACC-62 melanoma): 1.78 µM
TGI (UACC-62 melanoma): 3.36 µM
GI50 (UO-31 renal): 37.2 µM
TGI (UO-31 renal): > 100 µM
